In the supplement of paper PMC3974653:
Where a name gives a salt, the structure may show the parent alone.

tested on: MTT (mouse pheochromocytoma); assay: IC50 of cell viability (ATP content); details: (24 or 48 h)
Summary of the method: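 CellTiter-Glo ATP luminescence, read after 15 minutes, was used to assess MTT mouse pheochromocytoma cells treated for 24 or 48 hrs with library compounds (final 0.5 nM to 46 µM, 8 concentrations). The cells had been plated at 5 µl of 200,000 cells/ml per well in white 1536-well plates in DMEM with 5% FBS and 1% horse serum and cultured overnight at 37°C, 5% CO2. Normalisation set positive-control wells to 100% and DMSO wells to 0%. The IC50 was then determined by four-parameter logistic fitting.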

SMILES	IC50 of cell viability
Nc1ccc([N+](=O)[O-])cc1O [2-Amino-5-nitrophenol]	> 46 µM
Nc1nc2ccc([N+](=O)[O-])cc2s1 [2-Amino-6-nitrobenzothiazole]	> 46 µM
Brc1ccccc1-c1ccccc1 [2-Bromobiphenyl]	> 46 µM
CCCC(O)C(CC)CO (stereo not drawn) [2-ETHYL-1,3-HEXANEDIOL]	> 46 µM
CCOc1ccccc1C(N)=O [2-Ethoxybenzamide (Ethenzamide)]	> 46 µM
CCOCCOC(C)=O [2-Ethoxyethyl acetate]	> 46 µM
O=C(OCCO)c1ccccc1O [2-Hydroxyethyl salicylate]	> 46 µM
Sc1nc2ccccc2s1 [2-Mercaptobenzothiazole]	> 46 µM
COc1ccccc1O [2-Methoxyphenol]	> 46 µM
Cc1ncc[nH]1 [2-Methylimidazole]	> 46 µM
Nc1ccc(N)c([N+](=O)[O-])c1 [2-Nitro-1,4-phenylenediamine]	> 46 µM
O=C(O)CCC(=O)C(=O)O [2-Oxopentanedioic acid]	> 46 µM
OCCOc1ccccc1 [2-Phenoxyethanol]	> 46 µM
O=C(O)c1cc(-c2ccccc2)nc2ccccc12 [2-Phenyl-4-quinolinecarboxylic acid]	> 46 µM
OCCc1ccccc1 [2-Phenylethanol]	> 46 µM
O.O.O.O.[Na+].[O-]c1ccccc1-c1ccccc1 [2-Phenylphenol sodium salt tetrahydrate technical]	> 46 µM
CC(O)COc1ccccc1 (stereo not drawn) [2-Propanol, 1-phenoxy-]	> 46 µM
CC(C)O [2-Propanol]	> 46 µM
Oc1ccnc(S)n1 [2-THIOURACIL]	> 46 µM
CC1CC(O)CC(C)(C)C1 (stereo not drawn) [3,3,5-TRIMETHYLCYCLOHEXANOL]	> 46 µM
Nc1ccncc1N [3,4-DIAMINOPYRIDINE PHOSPHATE]	> 46 µM
N[C@@H](Cc1cc(I)c(O)c(I)c1)C(=O)O [3,5-DIIODO-L-TYROSINE]	> 46 µM
CN1CC[C@@]23C4OC5=C(OC(C)=O)C=CC(=C25)C[C@@H]1C3\C=C/C4OC(C)=O (stereo partly drawn) [3,6-Diacetylmorphine]	> 46 µM
C1N2CN3CN1CN(C2)C3 [3-0760 Hexamethylenetetramine]	> 46 µM
OCC(O)COc1ccc(Cl)cc1 (stereo not drawn) [3-(4-CHLOROPHENOXY)-1,2-PROPANEDIOL]	> 46 µM

SMILES	IC50 of cell viability
N#CCCN.N#CCCN.O=C(O)/C=C/C(=O)O [3-Aminopropionitrile fumarate]	> 46 µM
OCCCBr [3-Bromo-1-propanol]	> 46 µM
OCCCc1ccccc1 [3-Phenyl-1-propanol]	> 46 µM
OCc1cccnc1 [3-Pyridinemethanol]	> 46 µM
C[N+]1(C)C2CCC1CC(OC(=O)c1c[nH]c3ccccc13)C2.[I-] (stereo not drawn) [3-Tropanylindole-3-carboxylate methiodide]	> 46 µM
CCCn1c(=O)[nH]c(=O)c2[nH]cnc21 [3-n-PROPYLXANTHINE]	> 46 µM
CC(=O)O[C@H]1CC[C@@]2(C)C(=CC[C@H]3[C@@H]4CC[C@H](C(C)=O)[C@@]4(C)CC[C@@H]32)C1 [3BETA-ACETOXY-5-PREGNENE-20-ONE]	> 46 µM
O=[S+]([O-])(c1ccc(Cl)cc1)c1ccc(Cl)cc1 [4,4'-Dichlorodiphenyl sulfone]	> 46 µM
Nc1ccc(Sc2ccc(N)cc2)cc1 [4,4'-Thiodianiline]	> 46 µM
Oc1noc2c1CCNC2 [4,5,6,7-TETRAHYDROISOXAZOLO[5,4-c]PYRIDIN-3-OL]	> 46 µM
CC(C)(C)CC(C)(C)c1ccc(O)cc1 [4-(1,1,3,3-Tetramethylbutyl)phenol]	> 46 µM
O=C(O)CCCOc1ccc(Cl)cc1Cl [4-(2,4-Dichlorophenoxy)butyric acid]	> 46 µM
Nc1ccncc1 [4-AMINOPYRIDINE]	> 46 µM
Nc1ccc(O)c([N+](=O)[O-])c1 [4-Amino-2-nitrophenol]	> 46 µM
Nc1ccc(/N=N/c2ccccc2)cc1 [4-Aminoazobenzene]	> 46 µM
Nc1ccc(O)cc1 [4-Aminophenol]	> 46 µM
CC12CCC3C(CC\C4=C(/O)C(=O)CCC34C)C1CCC2=O (stereo not drawn) [4-Androsten-4-ol-3,17-dione]	> 46 µM
Nc1ccc(Cl)cc1N [4-Chloro-o-phenylenediamine]	> 46 µM
CN(C)\C1=C(/C)N(C)N(C2=CC=CC=C2)C1=O [4-Dimethylaminoantipyrine]	> 46 µM
CCCCCCCCCC(CC)c1ccc([S+](=O)([O-])O)cc1 (stereo not drawn) [4-Dodecylbenzenesulfonic acid]	> 46 µM
NCCc1ccc(O)cc1 [4-HYDROXYPHENETHYLAMINE]	> 46 µM
CCCCCCc1ccc(O)cc1O [4-Hexylresorcinol]	> 46 µM
O=P1(N(CCCl)CCCl)NC(OO)CCO1 (stereo not drawn) [4-Hydroperoxy Cyclophosphamide]	> 46 µM
Cc1cn[nH]c1.Cl [4-Methylpyrazole hydrochloride]	> 46 µM
Nc1ccc([N+](=O)[O-])cc1 [4-Nitroaniline]	> 46 µM

SMILES	IC50 of cell viability
CCCCCCCCCc1ccc(O)cc1 [4-Nonylphenol, branched]	> 46 µM
C(=C\c1ccncc1)/c1ccccc1 [4-STYRYLPYRIDINE]	> 46 µM
CC(C)(C)c1ccc(O)cc1 [4-T-BUTYLPHENOL FORMALDEHYDE RESIN]	> 46 µM
Cc1ccc2c(Cl)cc(Cl)c(O)c2n1 [5,7-Dichloro-8-hydroxy-2-methylquinoline]	> 46 µM
Cc1ccc(N)cc1O [5-Amino-o-cresol]	> 46 µM
N[C@@H](Cc1c[nH]c2ccc(O)cc12)C(=O)O [5-HYDROXY-L-TRYPTOPHAN]	> 46 µM
O=C1[C@@H]2C[C@@H]3C[C@H]1C[C@@](O)(C3)C2 [5-Hydroxy-2-adamantanone]	> 46 µM
CN1c2c(O)nc(N)nc2NCC1CNc1ccc(C(=O)NC(CCC(=O)[O-])C(=O)[O-])cc1 (stereo not drawn) [5-METHYLTETRAHYDROFOLATE SODIUM SALT]	> 46 µM
COc1ccc2[nH]cc(CCN(C(C)C)C(C)C)c2c1 [5-Methoxy-N,N-diisopropyltryptamine]	> 46 µM
NC(=O)N/N=C/c1ccc([N+](=O)[O-])o1 [5-Nitro-2-furaldehyde semicarbazone]	> 46 µM
CC(=O)[C@H]1CC[C@H]2[C@@H]3CC[C@H]4C[C@H](O)CC[C@]4(C)[C@H]3CC[C@]12C [5-alpha-PREGNAN-3-alpha-OL-20-ONE]	> 46 µM
C[C@]12CCC(=O)C[C@@H]1CC[C@@H]1[C@@H]2CC[C@]2(C)C=CC[C@@H]12 [5A-ANDROSTA-16-ENE-3-ONE]	> 46 µM
C[C@]12CCC(=O)C[C@@H]1CC[C@@H]1[C@@H]2CC[C@]2(C)[C@@H](O)CC[C@@H]12 [5alpha-Androstan-17beta-ol-3-one]	> 46 µM
CC(=O)[C@H]1CC[C@H]2[C@@H]3CC[C@H]4C[C@H](O)CC[C@]4(C)[C@H]3C(=O)C[C@]12C [5alpha-Pregnan-3alpha-ol-11,20-dione]	> 46 µM
COc1cc2nc(O)nc(O)c2cc1OC [6,7-DIMETHOXYQUINAZOLINE-2,4(1H,3H)-DIONE]	> 46 µM
CC1(C)S[C@@H]2[C@H](N)C(=O)N2[C@@H]1C(=O)O [6-AMINOPENICILLANIC ACID]	> 46 µM
CCCc1cc(O)nc(S)n1 [6-Propyl-2-thiouracil]	> 46 µM
C[C@H]1C[C@H]2[C@@H]3CC[C@](O)(C(=O)COC(=O)CCC(O)=O)[C@@]3(C)C[C@H](O)[C@@H]2[C@@]\4(C)/C=C\C(=O)\C=C14 [6a-Methylprednisolone 21-hemisuccinate sodium salt]	> 46 µM
Cn1c(=O)c2c(ncn2CCO)n(C)c1=O [7-(beta-HYDROXYETHYL)THEOPHYLLINE]	> 46 µM
Oc1cccc2cccnc12 [8-Hydroxyquinoline]	> 46 µM
O=C(O)c1ccccc1O.Oc1cccc2cccnc12 [8-quinolinol and salicylic acid]	> 46 µM
O=[N+]([O-])c1c2ccccc2cc2ccccc12 [9-Nitroanthracene]	> 46 µM
CCCCCC(=O)O[C@@]1(CC[C@H]2[C@@H]3CCC/4=C/C(=O)CC[C@]4(C)[C@H]3CC[C@]12C)C(C)=O [17a-Hydroxyprogesterone hexanoate]	> 46 µM
